According to PMC12446476 (Nature Communications, 2025):
In brackets after ≈: the same amount, converted by molar mass. Where two headings read alike, the source gives them in different places.

Test system: N. gonorrhoeae
Test: MIC determination, Etest
Type: cell-based, Neisseria gonorrhoeae
Details: Neisseria gonorrhoeae, comparator antibiotics, read-out: Minimum inhibitory concentration
Excerpt: The 2024 WHO N. gonorrhoeae reference strains were used for quality control. Only whole MIC doubling dilutions are reported. Clinical breakpoints or the epidemiological cutoff (ECOFF, to indicate azithromycin resistance) from EUCAST (v14.0, https://www.eucast.org/clinical_breakpoints) were used to classify isolates as antimicrobial susceptible or resistant. […] Two times the standard inoculum defined by CLSI was used to establish consistent growth in untreated control samples for some strains. In vitro time-kill assays were performed according to CLSI guidelines[65] using Columbia Broth (BD Difco) supplemented with 1% IsoVitaleX Enrichment (BD). Viable bacterial counts were generated by plating 10-fold serially diluted samples on GC agar plates containing 1% IsoVitaleX Enrichment (BD).

Compound: CO/N=C(\C(=O)N[C@@H]1C(=O)N2C(C(=O)O)=C(CSc3nc(=O)c(=O)[nH]n3C)CS[C@H]12)c1csc(N)n1 [Ceftriaxone, reference compound]
- MIC (clinical N. gonorrhoeae isolate 1, Sweden 2023): 4 ng/mL (≈ 7.21 nM)
- MIC (clinical N. gonorrhoeae isolate 2, Sweden 2023): 32 ng/mL (≈ 57.7 nM)
- MIC (clinical N. gonorrhoeae isolate 3, Sweden 2023): 4 ng/mL (≈ 7.21 nM)
- MIC (clinical N. gonorrhoeae isolate 4, Sweden 2023): 32 ng/mL (≈ 57.7 nM)
- MIC (clinical N. gonorrhoeae isolate 5, Sweden 2023): 4 ng/mL (≈ 7.21 nM)
- MIC (clinical N. gonorrhoeae isolate 6, Sweden 2023): < 2 ng/mL
- MIC (clinical N. gonorrhoeae isolate 7, Sweden 2023): 8 ng/mL (≈ 14.4 nM)
- MIC (clinical N. gonorrhoeae isolate 8, Sweden 2023): 4 ng/mL (≈ 7.21 nM)
- MIC (clinical N. gonorrhoeae isolate 9, Sweden 2023): 4 ng/mL (≈ 7.21 nM)
- MIC (clinical N. gonorrhoeae isolate 10, Sweden 2023): < 2 ng/mL
- MIC (clinical N. gonorrhoeae isolate 11, Sweden 2023): 64 ng/mL (≈ 115 nM)
- MIC (clinical N. gonorrhoeae isolate 12, Sweden 2023): 8 ng/mL (≈ 14.4 nM)
- MIC (clinical N. gonorrhoeae isolate 13, Sweden 2023): < 2 ng/mL
- MIC (clinical N. gonorrhoeae isolate 14, Sweden 2023): 4 ng/mL (≈ 7.21 nM)
- MIC (clinical N. gonorrhoeae isolate 15, Sweden 2023): 4 ng/mL (≈ 7.21 nM)
- MIC (clinical N. gonorrhoeae isolate 16, Sweden 2023): 32 ng/mL (≈ 57.7 nM)
- MIC (clinical N. gonorrhoeae isolate 17, Sweden 2023): 4 ng/mL (≈ 7.21 nM)
- MIC (clinical N. gonorrhoeae isolate 18, Sweden 2023): 4 ng/mL (≈ 7.21 nM)
- MIC (clinical N. gonorrhoeae isolate 19, Sweden 2023): 16 ng/mL (≈ 28.9 nM)
- MIC (clinical N. gonorrhoeae isolate 20, Sweden 2023): 2 ng/mL (≈ 3.61 nM)
- MIC (clinical N. gonorrhoeae isolate 21, Sweden 2023): 2 ng/mL (≈ 3.61 nM)
- MIC (clinical N. gonorrhoeae isolate 22, Sweden 2023): 2 ng/mL (≈ 3.61 nM)
- MIC (clinical N. gonorrhoeae isolate 23, Sweden 2023): < 2 ng/mL
- MIC (clinical N. gonorrhoeae isolate 24, Sweden 2023): 2 ng/mL (≈ 3.61 nM)
- MIC (clinical N. gonorrhoeae isolate 25, Sweden 2023): 4 ng/mL (≈ 7.21 nM)
- MIC (clinical N. gonorrhoeae isolate 26, Sweden 2023): 4 ng/mL (≈ 7.21 nM)
- MIC (clinical N. gonorrhoeae isolate 27, Sweden 2023): 4 ng/mL (≈ 7.21 nM)
- MIC (clinical N. gonorrhoeae isolate 28, Sweden 2023): 8 ng/mL (≈ 14.4 nM)
- MIC (clinical N. gonorrhoeae isolate 29, Sweden 2023): 4 ng/mL (≈ 7.21 nM)
- MIC (clinical N. gonorrhoeae isolate 30, Sweden 2023): < 2 ng/mL
- MIC (clinical N. gonorrhoeae isolate 31, Sweden 2023): 4 ng/mL (≈ 7.21 nM)
- MIC (clinical N. gonorrhoeae isolate 32, Sweden 2023): 2 ng/mL (≈ 3.61 nM)
- MIC (clinical N. gonorrhoeae isolate 33, Sweden 2023): 2 ng/mL (≈ 3.61 nM)
- MIC (clinical N. gonorrhoeae isolate 34, Sweden 2023): 4 ng/mL (≈ 7.21 nM)
- MIC (clinical N. gonorrhoeae isolate 35, Sweden 2023): 64 ng/mL (≈ 115 nM)
- MIC (clinical N. gonorrhoeae isolate 36, Sweden 2023): 8 ng/mL (≈ 14.4 nM)
- MIC (clinical N. gonorrhoeae isolate 37, Sweden 2023): 16 ng/mL (≈ 28.9 nM)
- MIC (clinical N. gonorrhoeae isolate 38, Sweden 2023): 4 ng/mL (≈ 7.21 nM)
- MIC (clinical N. gonorrhoeae isolate 39, Sweden 2023): 4 ng/mL (≈ 7.21 nM)
- MIC (clinical N. gonorrhoeae isolate 40, Sweden 2023): 8 ng/mL (≈ 14.4 nM)
- MIC (clinical N. gonorrhoeae isolate 41, Sweden 2023): 32 ng/mL (≈ 57.7 nM)
- MIC (clinical N. gonorrhoeae isolate 42, Sweden 2023): < 2 ng/mL
- MIC (clinical N. gonorrhoeae isolate 43, Sweden 2023): 4 ng/mL (≈ 7.21 nM)
- MIC (clinical N. gonorrhoeae isolate 44, Sweden 2023): 64 ng/mL (≈ 115 nM)
- MIC (clinical N. gonorrhoeae isolate 45, Sweden 2023): 2 ng/mL (≈ 3.61 nM)
- MIC (clinical N. gonorrhoeae isolate 46, Sweden 2023): 16 ng/mL (≈ 28.9 nM)
- MIC (clinical N. gonorrhoeae isolate 47, Sweden 2023): 8 ng/mL (≈ 14.4 nM)
- MIC (clinical N. gonorrhoeae isolate 48, Sweden 2023): 4 ng/mL (≈ 7.21 nM)
- MIC (clinical N. gonorrhoeae isolate 49, Sweden 2023): 4 ng/mL (≈ 7.21 nM)
- MIC (clinical N. gonorrhoeae isolate 50, Sweden 2023): 4 ng/mL (≈ 7.21 nM)
- MIC (clinical N. gonorrhoeae isolate 51, Sweden 2023): 2 ng/mL (≈ 3.61 nM)
- MIC (clinical N. gonorrhoeae isolate 52, Sweden 2023): 2 ng/mL (≈ 3.61 nM)
- MIC (clinical N. gonorrhoeae isolate 53, Sweden 2023): 2 ng/mL (≈ 3.61 nM)
- MIC (clinical N. gonorrhoeae isolate 54, Sweden 2023): 4 ng/mL (≈ 7.21 nM)
- MIC (clinical N. gonorrhoeae isolate 55, Sweden 2023): 4 ng/mL (≈ 7.21 nM)
- MIC (clinical N. gonorrhoeae isolate 56, Sweden 2023): 32 ng/mL (≈ 57.7 nM)
- MIC (clinical N. gonorrhoeae isolate 57, Sweden 2023): 16 ng/mL (≈ 28.9 nM)
- MIC (clinical N. gonorrhoeae isolate 58, Sweden 2023): 2 ng/mL (≈ 3.61 nM)
- MIC (clinical N. gonorrhoeae isolate 59, Sweden 2023): 16 ng/mL (≈ 28.9 nM)
- MIC (clinical N. gonorrhoeae isolate 60, Sweden 2023): 2 ng/mL (≈ 3.61 nM)
- MIC (clinical N. gonorrhoeae isolate 61, Sweden 2023): < 2 ng/mL
- MIC (clinical N. gonorrhoeae isolate 62, Sweden 2023): < 2 ng/mL
- MIC (clinical N. gonorrhoeae isolate 63, Sweden 2023): < 2 ng/mL
- MIC (clinical N. gonorrhoeae isolate 64, Sweden 2023): 16 ng/mL (≈ 28.9 nM)
- MIC (clinical N. gonorrhoeae isolate 65, Sweden 2023): < 2 ng/mL
- MIC (clinical N. gonorrhoeae isolate 66, Sweden 2023): 32 ng/mL (≈ 57.7 nM)
- MIC (clinical N. gonorrhoeae isolate 67, Sweden 2023): 16 ng/mL (≈ 28.9 nM)
- MIC (clinical N. gonorrhoeae isolate 68, Sweden 2023): 4 ng/mL (≈ 7.21 nM)
- MIC (clinical N. gonorrhoeae isolate 69, Sweden 2023): 4 ng/mL (≈ 7.21 nM)
- MIC (clinical N. gonorrhoeae isolate 70, Sweden 2023): < 2 ng/mL
- MIC (clinical N. gonorrhoeae isolate 71, Sweden 2023): 32 ng/mL (≈ 57.7 nM)
- MIC (clinical N. gonorrhoeae isolate 72, Sweden 2023): 32 ng/mL (≈ 57.7 nM)
- MIC (clinical N. gonorrhoeae isolate 73, Sweden 2023): 16 ng/mL (≈ 28.9 nM)
- MIC (clinical N. gonorrhoeae isolate 74, Sweden 2023): 32 ng/mL (≈ 57.7 nM)
- MIC (clinical N. gonorrhoeae isolate 75, Sweden 2023): 32 ng/mL (≈ 57.7 nM)
- MIC (clinical N. gonorrhoeae isolate 76, Sweden 2023): 4 ng/mL (≈ 7.21 nM)
- MIC (clinical N. gonorrhoeae isolate 77, Sweden 2023): 2 ng/mL (≈ 3.61 nM)
- MIC (clinical N. gonorrhoeae isolate 78, Sweden 2023): 16 ng/mL (≈ 28.9 nM)
- MIC (clinical N. gonorrhoeae isolate 79, Sweden 2023): < 2 ng/mL
- MIC (clinical N. gonorrhoeae isolate 80, Sweden 2023): 8 ng/mL (≈ 14.4 nM)
- MIC (clinical N. gonorrhoeae isolate 81, Sweden 2023): 4 ng/mL (≈ 7.21 nM)
- MIC (clinical N. gonorrhoeae isolate 82, Sweden 2023): 16 ng/mL (≈ 28.9 nM)
- MIC (clinical N. gonorrhoeae isolate 83, Sweden 2023): 4 ng/mL (≈ 7.21 nM)
- MIC (clinical N. gonorrhoeae isolate 84, Sweden 2023): 64 ng/mL (≈ 115 nM)
- MIC (clinical N. gonorrhoeae isolate 85, Sweden 2023): 4 ng/mL (≈ 7.21 nM)
- MIC (clinical N. gonorrhoeae isolate 86, Sweden 2023): 8 ng/mL (≈ 14.4 nM)
- MIC (clinical N. gonorrhoeae isolate 87, Sweden 2023): 2 ng/mL (≈ 3.61 nM)
- MIC (clinical N. gonorrhoeae isolate 88, Sweden 2023): 64 ng/mL (≈ 115 nM)
- MIC (clinical N. gonorrhoeae isolate 89, Sweden 2023): 4 ng/mL (≈ 7.21 nM)
- MIC (clinical N. gonorrhoeae isolate 90, Sweden 2023): 2 ng/mL (≈ 3.61 nM)
- MIC (clinical N. gonorrhoeae isolate 91, Sweden 2023): 4 ng/mL (≈ 7.21 nM)
- MIC (clinical N. gonorrhoeae isolate 92, Sweden 2023): 4 ng/mL (≈ 7.21 nM)
- MIC (clinical N. gonorrhoeae isolate 93, Sweden 2023): 4 ng/mL (≈ 7.21 nM)
- MIC (clinical N. gonorrhoeae isolate 94, Sweden 2023): 2 ng/mL (≈ 3.61 nM)
- MIC (clinical N. gonorrhoeae isolate 95, Sweden 2023): < 2 ng/mL
- MIC (clinical N. gonorrhoeae isolate 96, Sweden 2023): 2 ng/mL (≈ 3.61 nM)
- MIC (clinical N. gonorrhoeae isolate 97, Sweden 2023): < 2 ng/mL
- MIC (clinical N. gonorrhoeae isolate 98, Sweden 2023): 2 ng/mL (≈ 3.61 nM)
- MIC (clinical N. gonorrhoeae isolate 99, Sweden 2023): 4 ng/mL (≈ 7.21 nM)
- MIC (clinical N. gonorrhoeae isolate 100, Sweden 2023): 4 ng/mL (≈ 7.21 nM)
